Among the data in ChEMBL document CHEMBL1134716, “Synthesis and evaluation of GGPP geometric isomers: divergent substrate specificities of FTase and GGTase I” (Bioorg Med Chem Lett, 2001) are Krel and Km values, retold here.

The target in series [1] is Protein farnesyltransferase (Homo sapiens) (UniProt P49354+P49356). The experiment in a line: Activity as substrate for recombinant mammalian Farnesyltransferase expressed in baculovirus; activity expressed as Vmax relative to the Vmax of E,E-FPP.
For series [2], the system named is CC(C)=CCC/C(C)=C/CC/C(C)=C\CC/C(C)=C/COP(=O)(O)OP(=O)(O)O. The experiment in a line: (§1) Kinetic constant for recombinant mammalian Farnesyltransferase expressed in baculovirus by fluorescence assay.
Series [3] relates to CC(C)=CCC/C(C)=C/CC/C(C)=C\COP(=O)(O)OP(=O)(O)O. The description is as §1.
Series [4] relates to CC(C)=CCC/C(C)=C/CC/C(C)=C/CC/C(C)=C\COP(=O)(O)OP(=O)(O)O. The series is described as §1.
For series [5], the system named is CC(C)=CCC/C(C)=C\CC/C(C)=C/COP(=O)(O)OP(=O)(O)O. The description is as §1.

For the molecule `CC(C)=CCC/C(C)=C/CC/C(C)=C/CC/C(C)=C\COP(=O)(O)OP(=O)(O)O`, in series [1], the Krel turned out to be 0.67.

With `CC(C)=CCC/C(C)=C/CC/C(C)=C\CC/C(C)=C/COP(=O)(O)OP(=O)(O)O`, the Krel in series [1] worked out at 0.4.

For `CC(C)=CCC/C(C)=C/CC/C(C)=C\COP(=O)(O)OP(=O)(O)O`, the Krel in series [1] worked out at 0.47.

On to `CC(C)=CCC/C(C)=C\CC/C(C)=C/COP(=O)(O)OP(=O)(O)O`, for which, in series [1], the Krel turned out to be 0.41.

Consider “Protein farnesyltransferase (Homo sapiens) (from UniProt P49354+P49356)”, for which the Km was 0.481 µM in series [2], 0.225 µM in series [3], 0.021 µM in series [4] and 0.136 µM in series [5].

A word on the Km: it is the concentration of substrate that gives half-maximal velocity.
